# “And” between values parts separate entries of the source, which are not always exact repeats. Identical values can stand only once.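 Briefly, cells in 96-well plates were exposed to five compound concentrations for 48 h, and endpoints were estimated by linear interpolation. Here, GI50 denotes the concentration required for 50% inhibition of growth. At the TGI there is no net growth.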
# System: SF-268 CNS
# Assay: growth of human tumour cells (NCI), 48 h
Compound,TGI,GI50
C[C@]12CCC(=O)C=C1CC[C@@H]1C2CC[C@]2(C)c3nn(-c4ccc(F)cc4)nc3CC12 (some centres undefined),> 100 µM,–
O=C1C(Cl)C(c2ccccc2)N1n1cnc2ccccc2c1=O (centres undefined),> 100 µM,–
CN(C)C(=O)OCOC(=O)N(C)C,> 100 µM,–
COC(=O)c1ccc(/C=C2\N=C(C)OC2=O)cc1,> 100 µM,–
O=C1NC(=O)C(CCO)(c2ccccc2)C(=O)N1,> 100 µM,–
Cn1ccc(C(=O)NCCOCCNC(=O)c2ccn(C)c(=O)c2O)c(O)c1=O,> 100 µM,–
Cc1cn(C2CC(ON3C(=O)c4ccccc4C3=O)C(CO)O2)c(=O)[nH]c1=O (centres undefined),> 10 µM,–
N#CSc1nc[nH]c1C(N)=O,> 100 µM,–
C=CCn1c(=O)n(CC=C)c(=O)n(CC=C)c1=O,> 100 µM,–
CCCCN1C=CN2c3nc4cc(C)c(C)cc4n3C(C(=O)OC)=C(C(=O)OC)C12 (centres undefined),> 100 µM,–
C=C1C(=O)O[C@H]2[C@H]1[C@@H](OC(=O)C=C(C)C)CC1=C[C@@H](C[C@@]3(C)O[C@@H]23)OC1=O,35.6 µM and 22.9 µM,17.5 µM and 5.11 µM
CCOC(=O)C(N=Nc1ccc(S(N)(=O)=O)cc1)C(C)=O (centres undefined),> 100 µM,–
Cc1ccc(C2CC(c3ccco3)=NN2c2ccccc2)o1 (centres undefined),> 100 µM,–
C/C(=C1/CCCC2(N=NCC2c2ccccc2)C1=O)c1ccccc1 (centres undefined),> 100 µM,–
CCN1CCN(c2ccc(Nc3ccnc4ccc5nn(C)nc5c34)cc2)CC1,29.8 µM,–
CC1=CC(C2/C(=N/O)C=C(C)CC2(C)C)C(O)C(C)(C)C1 (centres undefined),37.1 µM,–
OCC1OC(n2cnc3c2NC=NC[C@H]3O)C(O)C1O (some centres undefined),> 450 µM,–
c1cc(-c2ncc(-c3ccc4c(c3)CCCO4)o2)ccn1,86.3 µM,–
CC(=O)OC1CC2c3cccc4c3C(CC2N(C)C1=O)CN4C(=O)c1ccccc1 (centres undefined),> 100 µM,–
CNC(=S)N/N=C(C)\C(=N/NC(=S)NC)c1ccccc1,> 100 µM,–
O=[N+]([O-])c1ccc(-n2nnc(C3=NCCCN3)c2-c2ccc(Cl)cc2)cc1,> 100 µM,–
COc1cc2c(cc1OC)C(O)[C@H](Br)C(C)(C)O2 (some centres undefined),> 100 µM,–
COc1ccc(C[N+]23C(CC[C@H]2c2ccccc2)CC[C@H]3c2ccccc2)cc1 (some centres undefined),> 100 µM,–
CCOC(=O)C1(C(=O)OCC)CN(CC)CN(c2ccccc2)C1,> 100 µM,–
CC(=O)OCC1OC(Nc2ncc(-c3ccc(C)cc3)s2)C(OC(C)=O)C(OC(C)=O)C1OC(C)=O (centres undefined),> 100 µM,–

# System: SF-539 CNS
# Assay: growth of human tumour cells (NCI), 48 h
row,Compound,TGI [µM]
1,Cc1ccc2c(c1CCCC(C)(C)O)C(=O)C(=O)C(C(C)C)=C2O,> 100
2,CC(=O)c1sc2c(c1OC(=O)c1cccs1)c(=O)n(-c1ccccc1)c(=S)n2-c1ccccc1,6.26
3,C[C@]12CCC(=O)C=C1CC[C@@H]1C2CC[C@]2(C)c3nn(-c4ccc(F)cc4)nc3CC12 (some centres undefined),> 100
4,CN(C)C(=O)OCOC(=O)N(C)C,> 100
5,COC(=O)c1ccc(/C=C2\N=C(C)OC2=O)cc1,> 100
6,O=C1NC(=O)C(CCO)(c2ccccc2)C(=O)N1,> 100
7,COc1ccc2c(c1)CC[C@@H]1[C@@H]2CC[C@]2(C)C(=O)/C(=C/c3ccc(OC)c(OC)c3)C[C@@H]12,> 100
8,Cc1cn(C2CC(ON3C(=O)c4ccccc4C3=O)C(CO)O2)c(=O)[nH]c1=O (centres undefined),> 10
9,N#CSc1nc[nH]c1C(N)=O,> 100
10,C=CCn1c(=O)n(CC=C)c(=O)n(CC=C)c1=O,> 100
11,COc1ccnc2c1C(=O)c1nc3ccccc3c3ccnc-2c13,33.7
12,CCCCN1C=CN2c3nc4cc(C)c(C)cc4n3C(C(=O)OC)=C(C(=O)OC)C12 (centres undefined),> 100
13,COC(=O)C(=C/c1ccc(OC)cc1)/C(C(=O)O)=C(/C)c1ccccc1,> 100
14,C=C1C(=O)O[C@H]2[C@H]1[C@@H](OC(=O)C=C(C)C)CC1=C[C@@H](C[C@@]3(C)O[C@@H]23)OC1=O,5.29
15,CCOC(=O)C(N=Nc1ccc(S(N)(=O)=O)cc1)C(C)=O (centres undefined),> 100
16,Cc1ccc(C2CC(c3ccco3)=NN2c2ccccc2)o1 (centres undefined),> 100
17,C/C(=C1/CCCC2(N=NCC2c2ccccc2)C1=O)c1ccccc1 (centres undefined),> 100
18,CCN1CCN(c2ccc(Nc3ccnc4ccc5nn(C)nc5c34)cc2)CC1,27.2
19,CC1=CC(C2/C(=N/O)C=C(C)CC2(C)C)C(O)C(C)(C)C1 (centres undefined),41.7
20,OCC1OC(n2cnc3c2NC=NC[C@H]3O)C(O)C1O (some centres undefined),> 450
21,c1cc(-c2ncc(-c3ccc4c(c3)CCCO4)o2)ccn1,45.2
22,CC(=O)OC1CC2c3cccc4c3C(CC2N(C)C1=O)CN4C(=O)c1ccccc1 (centres undefined),93.9
23,CNC(=S)N/N=C(C)\C(=N/NC(=S)NC)c1ccccc1,> 100
24,O=[N+]([O-])c1ccc(-n2nnc(C3=NCCCN3)c2-c2ccc(Cl)cc2)cc1,> 100
25,COc1cc2c(cc1OC)C(O)[C@H](Br)C(C)(C)O2 (some centres undefined),> 100
26,CCCCCC(C[N+]1(C)CCOCC1)C(=O)/C=C/c1ccccc1 (centres undefined),23.5
27,CCOC(=O)C1(C(=O)OCC)CN(CC)CN(c2ccccc2)C1,41.2
28,CC(=O)OCC1OC(Nc2ncc(-c3ccc(C)cc3)s2)C(OC(C)=O)C(OC(C)=O)C1OC(C)=O (centres undefined),> 82.6

# System: SNB-75 CNS
# Assay: growth of human tumour cells (NCI), 48 h
row,Compound,TGI [µM]
1,Cc1ccc2c(c1CCCC(C)(C)O)C(=O)C(=O)C(C(C)C)=C2O,> 100
2,CC(=O)c1sc2c(c1OC(=O)c1cccs1)c(=O)n(-c1ccccc1)c(=S)n2-c1ccccc1,68.8
3,C[C@]12CCC(=O)C=C1CC[C@@H]1C2CC[C@]2(C)c3nn(-c4ccc(F)cc4)nc3CC12 (some centres undefined),> 100
4,O=C1C(Cl)C(c2ccccc2)N1n1cnc2ccccc2c1=O (centres undefined),82.4
5,CN(C)C(=O)OCOC(=O)N(C)C,> 100
6,COC(=O)c1ccc(/C=C2\N=C(C)OC2=O)cc1,> 100
7,O=C1NC(=O)C(CCO)(c2ccccc2)C(=O)N1,> 100
8,COc1ccc2c(c1)CC[C@@H]1[C@@H]2CC[C@]2(C)C(=O)/C(=C/c3ccc(OC)c(OC)c3)C[C@@H]12,> 100
9,Cc1cn(C2CC(ON3C(=O)c4ccccc4C3=O)C(CO)O2)c(=O)[nH]c1=O (centres undefined),> 10
10,N#CSc1nc[nH]c1C(N)=O,> 100
11,COc1ccnc2c1C(=O)c1nc3ccccc3c3ccnc-2c13,0.589
12,CCCCN1C=CN2c3nc4cc(C)c(C)cc4n3C(C(=O)OC)=C(C(=O)OC)C12 (centres undefined),> 100
13,COC(=O)C(=C/c1ccc(OC)cc1)/C(C(=O)O)=C(/C)c1ccccc1,> 100
14,C=C1C(=O)O[C@H]2[C@H]1[C@@H](OC(=O)C=C(C)C)CC1=C[C@@H](C[C@@]3(C)O[C@@H]23)OC1=O,33.3
15,CCOC(=O)C(N=Nc1ccc(S(N)(=O)=O)cc1)C(C)=O (centres undefined),> 100
16,Cc1ccc(C2CC(c3ccco3)=NN2c2ccccc2)o1 (centres undefined),> 100
17,C/C(=C1/CCCC2(N=NCC2c2ccccc2)C1=O)c1ccccc1 (centres undefined),99.7
18,CCN1CCN(c2ccc(Nc3ccnc4ccc5nn(C)nc5c34)cc2)CC1,26.4
19,CC1=CC(C2/C(=N/O)C=C(C)CC2(C)C)C(O)C(C)(C)C1 (centres undefined),29.2
20,OCC1OC(n2cnc3c2NC=NC[C@H]3O)C(O)C1O (some centres undefined),> 450
21,c1cc(-c2ncc(-c3ccc4c(c3)CCCO4)o2)ccn1,53.5
22,CNC(=S)N/N=C(C)\C(=N/NC(=S)NC)c1ccccc1,> 100
23,O=[N+]([O-])c1ccc(-n2nnc(C3=NCCCN3)c2-c2ccc(Cl)cc2)cc1,> 100
24,COc1cc2c(cc1OC)C(O)[C@H](Br)C(C)(C)O2 (some centres undefined),> 100
25,CCCCCC(C[N+]1(C)CCOCC1)C(=O)/C=C/c1ccccc1 (centres undefined),15.7
